As usually defined, the IC50 is the concentration that gives 50% inhibition. A high value points to lower potency.

Consider four molecules from BindingDB's records for patent US12410160 (Gilead Sciences, 2025).

Test [1] deals with T1, Isoform A of Ketohexokinase (Peripheral) (Human, UniProt P50053).
T1 sequence (P50053 whole entry): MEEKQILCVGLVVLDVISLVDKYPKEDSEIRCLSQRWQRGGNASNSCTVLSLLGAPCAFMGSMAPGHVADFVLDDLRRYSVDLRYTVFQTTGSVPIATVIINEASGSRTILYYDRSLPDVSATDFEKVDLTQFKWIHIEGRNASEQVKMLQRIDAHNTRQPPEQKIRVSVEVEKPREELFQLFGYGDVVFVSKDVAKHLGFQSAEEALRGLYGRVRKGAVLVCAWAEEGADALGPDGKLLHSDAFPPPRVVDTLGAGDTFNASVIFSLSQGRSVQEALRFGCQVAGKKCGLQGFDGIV
Briefly: KHK Biochemical Assay. Here is the method: (§1) Compounds were tested for KHK enzyme inhibition in a high-throughput 384-well assay format using the ADP-Glo assay (Promega) in buffer consisting of 50 mM Hepes (pH 7.4), 140 mM KCl, 5 mM MgCl2 and 0.01% Triton-X. 0.2 nM. […] Compounds were serially diluted (1:3) in DMSO. […] The plates were incubated at room temperature for 4 hours before adding ADP-Glo reagent to quench the enzyme reaction, followed by incubation at room temperature for 1 hour. The ADP-Glo detection reagent was then added to the plates and luminescence was measured on the Envision plate reader after 1 hour.

A further test has as its target T2, Ketohexokinase (Human, UniProt P50053).
T2 sequence (P50053 whole entry): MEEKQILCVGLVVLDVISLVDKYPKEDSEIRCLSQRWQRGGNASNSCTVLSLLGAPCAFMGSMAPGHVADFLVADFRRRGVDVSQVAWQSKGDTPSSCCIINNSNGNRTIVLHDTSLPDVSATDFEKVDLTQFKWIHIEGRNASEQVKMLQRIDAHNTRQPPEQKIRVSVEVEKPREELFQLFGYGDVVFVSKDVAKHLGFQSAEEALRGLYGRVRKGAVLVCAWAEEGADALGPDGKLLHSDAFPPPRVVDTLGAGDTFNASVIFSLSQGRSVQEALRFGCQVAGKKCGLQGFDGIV
Briefly: KHK Biochemical Assay. Here is the method:
as §1

As for `C[C@H]1[C@H](O)CN1c1nc(-c2cccc(S(=N)(=O)CC#N)c2)c2c(n1)C(F)(F)CC2` (stereo partly drawn) [US12410160, Example 628], the IC50 worked out at 10.3 nM in test [1] and 8.8 nM against Ketohexokinase.
Taken in the same sequence, the figures for `C[C@H]1[C@H](O)CN1c1nc(-c2ccc3c(c2)COCC32CCC(=O)N2)c2c(n1)C(F)(F)CC2` (stereo partly drawn) [US12410160, Example 639] were 15.9 nM and 1.2 nM.
In the case of `COC(=O)N[C@H]1COc2cc(-c3nc(N4C[C@@H](O)[C@@H]4C)nc4c3CCC4(F)F)ccc21` [US12410160, Example 814], the IC50 in test [1] amounted to 71.3 nM; at Ketohexokinase, 1.8 nM.
Taken in the same sequence, the figures for `COc1ccc(-c2nc(N3CC[C@@H]3C(F)(F)F)nc3c2CCC3(F)F)cc1[S@@](C)(=N)=O` [US12410160, Example 825] were 0.5 nM and 0.9 nM.
